Measured values reported in patent EP3478687B1 (Daewoong Pharmaceutical Co., Ltd., priority 2016, dated 2018).
Counter-ions that a name gives are not always drawn.

How the values were obtained:
[1] = target: T1, Recombinant purified human JAK3 (Homo sapiens, UniProt P52333); assay: JAK3 kinase inhibitory activity, ADP-Glo kinase assay (Promega V9441); assay type: biochemical; details: for IC50: ATP 5 uM, 4 ng JAK3 per reaction, 1 hour 30 °C, chemiluminescence; for inhibition at 1 µM: @1uM compound; for inhibition at 1 µM / inhibition at 0.1 µM: printed in the JAK3 IC50 column; for inhibition at 0.1 µM: @100nM compound
T1 construct: purchased Promega V9441
T1 sequence (P52333 1-1124): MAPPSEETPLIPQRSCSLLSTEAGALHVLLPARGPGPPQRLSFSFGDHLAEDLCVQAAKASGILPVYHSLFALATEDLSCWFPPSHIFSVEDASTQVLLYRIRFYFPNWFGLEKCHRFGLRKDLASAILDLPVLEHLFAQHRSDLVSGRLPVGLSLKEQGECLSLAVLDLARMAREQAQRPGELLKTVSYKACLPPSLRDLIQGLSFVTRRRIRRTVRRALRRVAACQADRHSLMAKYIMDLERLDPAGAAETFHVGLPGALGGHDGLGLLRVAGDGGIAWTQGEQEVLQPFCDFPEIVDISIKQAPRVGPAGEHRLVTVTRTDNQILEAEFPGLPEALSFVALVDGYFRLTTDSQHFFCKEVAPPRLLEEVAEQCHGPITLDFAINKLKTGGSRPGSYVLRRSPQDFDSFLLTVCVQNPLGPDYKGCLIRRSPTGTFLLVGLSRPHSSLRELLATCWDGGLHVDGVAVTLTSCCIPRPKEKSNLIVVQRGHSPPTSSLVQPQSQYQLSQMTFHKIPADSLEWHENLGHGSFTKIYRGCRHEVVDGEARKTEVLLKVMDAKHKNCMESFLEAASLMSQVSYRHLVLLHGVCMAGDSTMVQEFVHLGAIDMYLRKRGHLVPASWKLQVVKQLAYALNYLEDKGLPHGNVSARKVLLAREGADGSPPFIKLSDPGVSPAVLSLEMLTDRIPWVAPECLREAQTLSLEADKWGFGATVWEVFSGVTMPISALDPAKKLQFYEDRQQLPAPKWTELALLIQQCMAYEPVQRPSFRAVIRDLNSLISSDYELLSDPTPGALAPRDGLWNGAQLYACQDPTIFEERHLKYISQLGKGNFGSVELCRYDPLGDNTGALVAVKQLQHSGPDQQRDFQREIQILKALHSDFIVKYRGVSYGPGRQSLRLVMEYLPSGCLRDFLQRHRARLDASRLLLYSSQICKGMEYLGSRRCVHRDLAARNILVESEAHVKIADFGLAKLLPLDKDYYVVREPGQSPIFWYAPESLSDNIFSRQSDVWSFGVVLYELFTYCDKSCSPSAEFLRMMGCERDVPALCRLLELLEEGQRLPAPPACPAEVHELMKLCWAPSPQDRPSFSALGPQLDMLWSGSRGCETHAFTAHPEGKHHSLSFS
Method in brief: (§1)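 Recombinant human kinases in Tris pH 7.5 buffer with MgCl2, BSA and DTT (MnCl2 added for BTK), 4 ng JAK3 or 8 ng BTK per reaction. Poly(Glu4,Tyr1) 0.2 µg/µL with 5 µM (JAK3) or 10 µM (BTK) ATP, 1% DMSO, 1 h at 30 °C. ADP-Glo luminescence used to derive IC50.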

[2] = target: T2, Recombinant purified human BTK (Homo sapiens, UniProt Q06187); assay: BTK kinase inhibitory activity, ADP-Glo kinase assay (Promega V9071); assay type: biochemical; details: for IC50: ATP 10 uM, 8 ng BTK per reaction, 1 hour 30 °C, chemiluminescence; for inhibition at 1 µM: @1uM compound; for inhibition at 0.1 µM: @100nM compound
T2 construct: purchased Promega V9071
T2 sequence (Q06187 whole entry): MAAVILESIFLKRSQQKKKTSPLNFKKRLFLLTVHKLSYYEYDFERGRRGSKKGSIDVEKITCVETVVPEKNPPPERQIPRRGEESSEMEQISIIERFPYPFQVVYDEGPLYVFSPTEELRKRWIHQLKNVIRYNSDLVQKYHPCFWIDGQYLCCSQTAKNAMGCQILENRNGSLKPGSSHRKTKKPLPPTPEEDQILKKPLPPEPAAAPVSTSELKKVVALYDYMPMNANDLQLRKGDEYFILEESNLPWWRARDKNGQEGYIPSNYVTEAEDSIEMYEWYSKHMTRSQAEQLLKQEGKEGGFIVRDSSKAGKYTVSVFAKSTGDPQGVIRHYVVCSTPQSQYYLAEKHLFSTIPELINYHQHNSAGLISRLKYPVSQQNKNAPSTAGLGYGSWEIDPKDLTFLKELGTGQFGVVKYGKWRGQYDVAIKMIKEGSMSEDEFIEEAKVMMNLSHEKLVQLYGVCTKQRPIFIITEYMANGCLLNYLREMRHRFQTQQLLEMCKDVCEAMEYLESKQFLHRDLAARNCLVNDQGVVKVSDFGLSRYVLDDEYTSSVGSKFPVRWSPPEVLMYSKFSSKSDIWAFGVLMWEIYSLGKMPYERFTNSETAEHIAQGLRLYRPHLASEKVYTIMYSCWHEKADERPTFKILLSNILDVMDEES
Method in brief: as §1

| Compound | IC50 [1] [nM] | IC50 [2] [nM] | other results |
| --- | --- | --- | --- |
| C=CC(=O)N1CCC[C@@H](Sc2nc(Nc3cnn(CC)c3)nc3[nH]ncc23)C1 [Example 105, (R)-1-(3-((6-((1-ethyl-1H-pyrazol-4-yl)amino)-1H-pyrazolo [3,4-d]pyrimidin-4-yl)thio)piperidin-1-yl)prop-2-en-1-one] | 3.6 | 1.9 |  |
| C=CC(=O)N1CCC[C@@H](Nc2nc(Nc3cnn(CC)c3)nc3[nH]nc(Cl)c23)C1 [Example 91, (R)-1-(3-((3-chloro-6-((1-ethyl-1H-pyrazol-4-yl)amino)-1H-pyrazolo[3,4-d]pyrimidin-4-yl)amino)piperidin-1-yl)prop-2-en-1-one hydrochloride] | 1.1 | 1.1 |  |
| C=CC(=O)N1CC[C@@H](C)[C@@H](N(C)c2nc(Nc3ccc(N4CCN(C)CC4)cc3)nc3[nH]ccc23)C1 [Example 27, 1-((3R,4R)-4-methyl-3-(methyl(2-(4-(4-methylpiperazin-1-yl)phenylamino)-7H-pyrrolo[2,3-d]pyrimidin-4-yl)amino)piperidin-1-yl)prop-2-en-1-one] |  |  | inhibition at 1 µM [1]: 32.8%; inhibition at 1 µM [2]: 48% |
| C=CC(=O)N1CCC[C@@H](Nc2nc(Nc3cnn(C4CC4)c3)nc3[nH]nc(Cl)c23)C1 [Example 49, (R)-1-(3-(3-chloro-6-(1-cyclopropyl-lH-pyrazol-4-ylamino)-1H-pyrazolo [3,4-d]pyrimidin-4-ylamino)piperidin-1-yl)prop-2-en-1-one] | 0.7 | 0.9 |  |
| C=CC(=O)N1CCC[C@@H](Nc2nc(Nc3cnn(C(F)F)c3)nc3[nH]cc(Cl)c23)C1 [Example 38, (R)-1-(3-(5-chloro-2-(1-(difluoromethyl)-1H-pyrazol-4-ylamino)-7H-pyrrolo[2,3-d]pyrimidin-4-ylamino)piperidin-1-yl)prop-2-en-1-one] | 0.1 | 4.3 |  |
| C=CC(=O)N1CCC[C@@H](Nc2nc(Nc3cnn(CCN4CCOCC4)c3)nc3[nH]cc(Cl)c23)C1 [Example 40, (R)-1-(3-(5-chloro-2-(1-(2-morpholinoethyl)-1H-pyrazol-4-ylamino)-7H-pyrrolo [2,3-d]pyrimidin-4-ylamino)piperidin-1-yl)prop-2-en-1-one] | 0.2 | 1.8 |  |
| C=CC(=O)N1CCC[C@@H](Nc2nc(Nc3ccc(N4CCN(C)CC4)cc3)nc3[nH]nc(Cl)c23)C1 [Example 42] | 5.1 | 3.2 |  |
| C=CC(=O)N1CCC[C@@H](N(C)c2nc(Nc3cnn(CC)c3)nc3[nH]ccc23)C1 [Example 101, (R)-1-(3-((2-((1-ethyl-1H-pyrazol-4-yl)amino)-7H-pyrrolo[2,3-d]pyrimidin-4-yl)(methyl)amino)piperidin-1-yl)prop-2-en-1-one] | 1.8 | 7.4 |  |
| C=CC(=O)N1CCC[C@@H](Nc2nc(Nc3cnn(C)c3)nc3[nH]ncc23)C1 [Example 32, (R)-1-(3-(6-(1-methyl-1H-pyrazol-4-ylamino)-1H-pyrazolo[3,4-d]pyrimidin-4-ylamino)piperidin-1-yl)prop-2-en-1-one] | 10.7 | 2.8 |  |
| C=CC(=O)N1CCC[C@@H](Nc2nc(Nc3cn(C)nc3C)nc3[nH]ccc23)C1 [Example 22, (R)-1-(3-(2-(1,3-dimethyl-1H-pyrazol-4-ylamino)-7H-pyrrolo[2,3-d]pyrimidin-4-ylamino)piperidin-1-yl)prop-2-en-1-one] |  |  | inhibition at 0.1 µM [1]: 17.3%; inhibition at 0.1 µM [2]: 8.9% |
| C=CC(=O)N1CCC[C@@H](Nc2nc(Nc3cnn(Cc4cccc(OC)c4)c3)nc3[nH]cc(Cl)c23)C1 [Example 41, (R)-1-(3-(5-chloro-2-(1-(3-methoaybenzyl)-1H-pyrazol-4-ylamino)-7H-pyrrolo[2,3-d]pyrimidin-4-ylamino)piperidin-1-yl)prop-2-en-1-one] | 0.5 | 1.8 |  |
| C=CC(=O)N1CCC[C@@H](N(C)c2nc(Nc3cnn(CC)c3)nc3[nH]nc(SC)c23)C1 [Example 131, (R)-1-(3-((6-((1-ethyl-1H-pyrazol-4-yl)amino)-3-(methylthio)-1H-pyrazolo [3,4-d]pyrimidin-4-yl)(methyl)amino)piperidin-1-yl)prop-2-en-1-one] | 24.5 | 1.6 |  |
| C=CC(=O)N1CCC[C@@H](Nc2nc(Nc3ccc(Oc4ccccc4)cc3)nc3[nH]ccc23)C1 [Example 13, (R)-1-(3-(2-(4-phenoxyphenylamino)-7H-pyrrolo[2,3-d]pyrimidin-4-ylamino)piperidin-1-yl)prop-2-en-1-one] |  |  | inhibition at 1 µM [1]: 0.4%; inhibition at 1 µM [2]: 1% |
| C=CC(=O)N1CCC[C@H](Nc2nc(Nc3cccc(NC(=O)N4CCCC4)c3)nc3[nH]ccc23)C1 [Example 3, (S)-N-(3-(4-(1-acryloylpiperidin-3-ylamino)-7H-pyrrolo[2,3-d]pyrimidin-2-ylamino)phenyl)pyrrolidine-1-carboxamide] |  |  | inhibition at 0.1 µM [1]: 28.2%; inhibition at 0.1 µM [2]: 30% |
| C=CC(=O)N1CCC[C@@H](Nc2nc(Nc3ccc4ncsc4c3)nc3[nH]ccc23)C1 [Example 12, (R)-1-(3-(2-(benzo[d]thiazol-6-ylamino)-7H-pyrrolo[2,3-d]pyrimidin-4-ylamino)piperidin-1-yl)prop-2-en-1-one] | 1.3 | 10.6 |  |

Now from value to compound, other results behind:

| IC50 [1] [nM] | IC50 [2] [nM] | Compound | other results |
| --- | --- | --- | --- |
| 2.3 | 2.1 | CCn1cc(Nc2nc(N[C@@H]3CCCN(C(=O)/C(C#N)=C/C4CC4)C3)c3c(F)c[nH]c3n2)cn1 [Example 182] |  |
| 2 | 0.76 | C=CC(=O)N1CCC[C@@H](Nc2nc(Nc3cnn(CC(F)F)c3)nc3[nH]nc(SC)c23)C1 [Example 190, (R)-1-(3-((6-((1-(2,2-difluoroethyl)-1H-pyrazol-4-yl)amino)-3-(methylthio)-1H-pyrazolo[3,4-d]pyrimidin-4-yl)amino)piperidin-1-yl)prop-2-en-1-one] |  |
| 1.5 | 3.4 | CCn1cc(Nc2nc(N[C@H]3CN(C(=O)/C(C#N)=C/C(C)C)CC[C@H]3F)c3c(Cl)n[nH]c3n2)cn1 [Example 160, (E)-2-((3S,4R)-3-((3-chloro-6-((1-ethyl-1H-pyrazol-4-yl)amino)-1H-pyrazolo[3,4-d]pyrimidin-4-yl)amino)-4-fluoropiperidine-1-carbonyl)-4-methylpent-2-enenitrile] |  |
| 23.5 | 2.9 | C=CC(=O)N1CCC[C@@H](Nc2nc(Nc3cnn(C4CC4)c3)nc3[nH]nc(C)c23)C1 [Example 188, (R)-1-(3-((6-((1-cyclopropyl-1H-pyrazol-4-yl)amino)-3-methyl-1H-pyrazolo[3,4-d]pyrimidin-4-yl)amino)piperidin-1-yl)prop-2-en-1-one] |  |
| 0.3 | 1.6 | C=CC(=O)N1CCC[C@@H](Oc2nc(Nc3cnn(CC)c3)nc3[nH]cc(C#N)c23)C1 [Example 150, (R)-4-((1-acryloylpiperidin-3-yl)oxy)-2-((1-ethyl-1H-pyrazol-4-yl)amino)-7H-pyrrolo[2,3-d]pyrimidine-5-carbonitrile] |  |
| 4.2 | 0.76 | C=CC(=O)N1CCC[C@@H](Nc2nc(Nc3cnn(C)c3)nc3[nH]nc(SC)c23)C1 [Example 191, (R)-1-(3-((6-((1-methyl-1H-pyrazol-4-yl)amino)-3-(methylthio)-1H-pyrazolo [3,4-d]pyrimidin-4-yl)amino)piperidin-1-yl)prop-2-en-1-one] |  |
| 0.6 | 1.4 | CCn1cc(Nc2nc(O[C@@H]3CCCN(C(=O)/C(C#N)=C/C4CC4)C3)c3c(C#N)c[nH]c3n2)cn1 [Example 157, (R,E)-4-((1-(2-cyano-3-cyclopropylacryloyl)piperidin-3-yl)oxy)-2-((1-ethyl-1H-pyrazol-4-yl)amino)-7H-pyrrolo[2,3-d]pyrimidine-5-carbonitrile] |  |
| 0.9 | 2.2 | CCn1cc(Nc2nc(N[C@@H]3CCCN(C(=O)/C(C#N)=C/C4CC4)C3)c3cc[nH]c3n2)cn1 [Example 171, (R,E)-3-cyclopropyl-2-(3-((2-((1-ethyl-1H-pyrazol-4-yl)amino)-7H-pyrrolo[2,3-d]pyrimidin-4-yl)amino)piperidine-1-carbonyl)acrylonitrile] |  |
